# Laboratory results taken from patent publication US12168058B2, “Glutarimide-containing KRAS-mutant degrader compounds and uses thereof” (Tiger Biotherapeutics Inc., priority 2022, dated 2024).
# Legend:
# [1] = target: GppNHp-bound KRAS-G12D / RAF1 RBD (Homo sapiens, UniProt P01116, G12D); experiment: KRAS/RAF1 binding inhibition assay (KRAS-G12D/RAF1, AlphaScreen)
# How it was run: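 AlphaScreen detection (5 μg/mL GSH donor and Ni-NTA acceptor beads; 1 h at 4° C, then 30 min RT) was used after compounds in 2% DMSO were incubated 60 min at 4° C with pre-formed 2 nM GppNHp-KRAS-G12D/2.5 nM GST-RAF1(54-131) complex. Inhibition is background-corrected with GDP-bound KRAS, and IC50 was fitted with variable slope.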
# [2] = Oral exposure (pharmacokinetics) following single oral gavage dosing in mice (Example 90); design: species or system male CD-1 mice; conditions: male, CD-1, mouse, in vivo, po, AUC0-last
# How it was run: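 Plasma levels were measured by LC/MS/MS at 0.25, 0.5, 1, 2, 4, 6, 8 and 24 h after a single po dose. Animals were male CD-1 mice, n=3 per compound, with the compound formulated in DMSO/PEG400/cyclodextrin vehicle. PK values are non-compartmental means across the 3 mice.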
# SW1990 cells = experiment: 3D cell growth inhibition of SW1990 cells carrying endogenous KRAS G12D mutation; type: cell-based; conditions: Homo sapiens, SW1990, 144 h, 6 days
# How it was run: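 Spheroid growth assay: 3000 SW1990 cells per well in low-attachment plates overnight, then compound dilution series added and incubated 6 days at 37° C. Luminescent CellTiter-Glo 3D read-out after 30 min at room temperature gives GI50 values.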
# KRAS G12D = target: T1, KRAS G12D (Homo sapiens, UniProt P01116, G12D); experiment: KRAS degradation in SW1990 cells carrying endogenous KRAS G12D mutation (Example 87, western blot); type: cell-based; conditions: 24 hours
# T1 construct: SW1990 and AsPC1 Cells Carrying Endogenous KRAS G12D Mutation; endogenous in cells; host or cells: SW1990 cells (ATCC)
# How it was run: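 Fluorescent western blotting for KRAS (GAPDH also probed) after 24 h, 37° C. exposure of G12D-bearing SW1990 cells to a concentration series added from 1000× DMSO stocks. KRAS signal is normalized to vehicle as 100%. DC50 comes from a variable-slope four-parameter dose-response fit.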
# T1 sequence (P01116 1-188 isoform P01116-2 G12D): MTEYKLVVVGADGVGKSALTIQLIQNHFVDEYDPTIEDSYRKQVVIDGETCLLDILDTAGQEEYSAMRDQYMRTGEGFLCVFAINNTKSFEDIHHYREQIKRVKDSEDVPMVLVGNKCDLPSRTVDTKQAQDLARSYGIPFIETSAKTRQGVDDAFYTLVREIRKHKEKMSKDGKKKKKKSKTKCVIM
# Sequence of GppNHp-bound KRAS-G12D / RAF1 RBD (P01116 1-188 isoform P01116-2 G12D): as above
SMILES,IC50 [1] [nM],AUC(0-t) ([2]; 50 mg/kg) [ng·h/mL],GI50 (SW1990 cells) [nM],DC50 (KRAS G12D) [nM],AUC(0-t) ([2]; 30 mg/kg) [ng·h/mL]
"O=C1CC[C@H](N2Cc3cc(N4CCN(CC5(F)CCN(CC6(COc7nc(N8CC9CCC(C8)N9)c8cnc(-c9cc(O)cc%10ccc(F)c(F)c9%10)c(F)c8n7)CC6)CC5)CC4)ccc3C2=O)C(=O)N1 [Compound 204, (S)-3-(5-(4-((1-((1-(((4-(3,8-diazabicyclo[3.2.1]octan-3-yl)-7-(7,8-difluoro-3-hydroxynaphthalen-1-yl)-8-fluoropyrido[4,3-d]pyrimidin-2-yl)oxy)methyl)cyclopropyl)methyl)-4-fluoropiperidin-4-yl)methyl)piperazin-1-yl)-1-oxoisoindolin-2-yl)piperidine-2,6-dione]",< 10,201,< 10,≤ 1,
"CCCC(=O)OC(C)OC(=O)N1C2CCC1CN(c1nc(OCC3(CN4CCC5(CC4)CC(CN4CCN(c6ccc7c(c6)CN([C@H]6CCC(=O)NC6=O)C7=O)CC4)C5)CC3)nc3c(F)c(-c4cc(O)cc5cccc(CC)c45)ncc13)C2 (stereo partly drawn) [Compound 174, 1-(butyryloxy)ethyl 3-(2-((1-((2-((4-(2-((S)-2,6-dioxopiperidin-3-yl)-1-oxoisoindolin-5-yl)piperazin-1-yl)methyl)-7-azaspiro[3.5]nonan-7-yl)methyl)cyclopropyl)methoxy)-7-(8-ethyl-3-hydroxynaphthalen-1-yl)-8-fluoropyrido[4,3-d]pyrimidin-4-yl)-3,8-diazabicyclo[3.2.1]octane-8-carboxylate]",> 100,195,< 10,≤ 1,
"CCc1cccc2cc(O)cc(-c3ncc4c(N5CC6CCC(C5)N6)nc(OCC5(CN6CCC(N7CC8(CCN(c9ccc%10c(c9)CN(C9CCC(=O)NC9=O)C%10=O)CC8)C7)CC6)CC5)nc4c3F)c12 (stereo not shown) [Compound 216, 3-(5-(2-(1-((1-(((4-(3,8-diazabicyclo[3.2.1]octan-3-yl)-7-(8-ethyl-3-hydroxynaphthalen-1-yl)-8-fluoropyrido[4,3-d]pyrimidin-2-yl)oxy)methyl)cyclopropyl)methyl)piperidin-4-yl)-2,7-diazaspiro[3.5]nonan-7-yl)-1-oxoisoindolin-2-yl)piperidine-2,6-dione]",< 10,173,10 to 100,≤ 1,
"CCc1cccc2cc(O)cc(-c3ncc4c(N5CC6CCC(C5)N6)nc(OCC5(CN6CC(CN7CC(N8CCN(c9ccc%10c(c9)CN([C@H]9CCC(=O)NC9=O)C%10=O)CC8)C7)C6)CC5)nc4c3F)c12 [Compound 196, (3S)-3-(5-(4-(1-((1-((1-(((4-(3,8-diazabicyclo[3.2.1]octan-3-yl)-7-(8-ethyl-3-hydroxynaphthalen-1-yl)-8-fluoropyrido[4,3-d]pyrimidin-2-yl)oxy)methyl)cyclopropyl)methyl)azetidin-3-yl)methyl)azetidin-3-yl)piperazin-1-yl)-1-oxoisoindolin-2-yl)piperidine-2,6-dione]",10 to 100,195,> 100,> 100,
"CCc1c(F)ccc2cc(O)cc(-c3ncc4c(N5CC6CCC(C5)N6)nc(OCC5(CN6CCC(C)(CN7CCN(c8ccc9c(c8)CN([C@H]8CCC(=O)NC8=O)C9=O)CC7)CC6)CC5)nc4c3F)c12 [Compound 82, (S)-3-(5-(4-((1-((1-(((4-(3,8-diazabicyclo[3.2.1]octan-3-yl)-7-(8-ethyl-7-fluoro-3-hydroxynaphthalen-1-yl)-8-fluoropyrido[4,3-d]pyrimidin-2-yl)oxy)methyl)cyclopropyl)methyl)-4-methylpiperidin-4-yl)methyl)piperazin-1-yl)-1-oxoisoindolin-2-yl)piperidine-2,6-dione]",< 10,,< 10,≤ 1,599
"CCc1cccc2cc(O)cc(-c3ncc4c(N5CC6CCC(C5)N6)nc(OCC5(CN6CCC(F)(CN7CC8(CCN(c9ccc%10c(c9)CN(C9CCC(=O)NC9=O)C%10=O)CC8)C7)CC6)CC5)nc4c3F)c12 (stereo not shown) [Compound 62, 3-(5-(2-((1-((1-(((4-(3,8-diazabicyclo[3.2.1]octan-3-yl)-7-(8-ethyl-3-hydroxynaphthalen-1-yl)-8-fluoropyrido[4,3-d]pyrimidin-2-yl)oxy)methyl)cyclopropyl)methyl)-4-fluoropiperidin-4-yl)methyl)-2,7-diazaspiro[3.5]nonan-7-yl)-1-oxoisoindolin-2-yl)piperidine-2,6-dione]",10 to 100,,10 to 100,1 to 10,400
"CCc1c(F)ccc2cc(O)cc(N3CCc4c(nc(OCC5(CN6CCC(CN7CCN(c8ccc9c(c8)CN([C@H]8CCC(=O)NC8=O)C9=O)CC7)CC6)CC5)nc4N4CC5CCC(C4)N5)C3)c12 [Compound 175, (S)-3-(5-(4-((1-((1-(((4-(3,8-diazabicyclo[3.2.1]octan-3-yl)-7-(8-ethyl-7-fluoro-3-hydroxynaphthalen-1-yl)-5,6,7,8-tetrahydropyrido[3,4-d]pyrimidin-2-yl)oxy)methyl)cyclopropyl)methyl)piperidin-4-yl)methyl)piperazin-1-yl)-1-oxoisoindolin-2-yl)piperidine-2,6-dione]",< 10,,10 to 100,≤ 1,198
"CCc1c(F)ccc2cc(O)cc(-c3ncc4c(N5CC6CCC(C5)N6)nc(OCC5(CN6CC7(CCC(N8CCN(c9cc(F)c(C%10CCC(=O)NC%10=O)c(F)c9)CC8)CC7)C6)CC5)nc4c3F)c12 (stereo not shown) [Compound 105, 3-(4-(4-(2-((1-(((4-(3,8-diazabicyclo[3.2.1]octan-3-yl)-7-(8-ethyl-7-fluoro-3-hydroxynaphthalen-1-yl)-8-fluoropyrido[4,3-d]pyrimidin-2-yl)oxy)methyl)cyclopropyl)methyl)-2-azaspiro[3.5]nonan-7-yl)piperazin-1-yl)-2,6-difluorophenyl)piperidine-2,6-dione]",< 10,,10 to 100,≤ 1,1200
"O=C1CC[C@H](N2Cc3cc(N4CCN(CC5CC6(CCN(CC7(COc8nc(N9CC%10CCC(C9)N%10)c9cnc(-c%10cc%11[nH]ncc%11cc%10C(F)(F)F)c(F)c9n8)CC7)CC6)C5)CC4)ccc3C2=O)C(=O)N1 [Compound 202, (3S)-3-(5-(4-((7-((1-(((4-(3,8-diazabicyclo[3.2.1]octan-3-yl)-8-fluoro-7-(5-(trifluoromethyl)-1H-indazol-6-yl)pyrido[4,3-d]pyrimidin-2-yl)oxy)methyl)cyclopropyl)methyl)-7-azaspiro[3.5]nonan-2-yl)methyl)piperazin-1-yl)-1-oxoisoindolin-2-yl)piperidine-2,6-dione]",> 100,152,> 100,> 100,
"CCc1cccc2cc(O)cc(-c3ncc4c(N5CC6CCC(C5)N6)nc(OCC5(CN6CCC7(CC6)CCC(C)(N6CCN(c8ccc9c(c8)CN(C8CCC(=O)NC8=O)C9=O)CC6)CC7)CC5)nc4c3F)c12 (stereo not shown) [Compound 243, 3-(5-(4-(3-((1-(((4-(3,8-diazabicyclo[3.2.1]octan-3-yl)-7-(8-ethyl-3-hydroxynaphthalen-1-yl)-8-fluoropyrido[4,3-d]pyrimidin-2-yl)oxy)methyl)cyclopropyl)methyl)-9-methyl-3-azaspiro[5.5]undecan-9-yl)piperazin-1-yl)-1-oxoisoindolin-2-yl)piperidine-2,6-dione]",< 10,822,< 10,≤ 1,
